Legend:
[1] = tested on: recombinant human HDAC1-4 and HDAC6-9; assay: Histone deacetylase inhibition, two-step fluorogenic assay; assay type: biochemical; conditions: reduced form of the compound
Experimental: TCEP, tris(2-carboxyethyl)phosphine hydrocloride used as a reducing agent.
The experiments included HDACs falling in human class I (HDACs 1, 2, 3 and 8), as well as human class II (HDACs 4, 6, 7 and 9), and the activities were determined in a two-step fluorogenic assay by the method described in (Wegener et al. Analytical biochemistry (2003) 321:202-208). All HDAC dose-response curves were bundled for each compound individually in the native/oxidized and the reduced forms. The activity of each enzyme was normalized separately. For determination of the inhibitory effect, IC50 values (in μM concentrations) were obtained through a non-linear four-parameter fit.

[2] = tested on: NCI-60 cancer cell lines; assay: NCI-60 single-dose assay; assay type: cell-based, human; conditions: single dose 10 μM
[3] = tested on: CNS cancer cell line (U251); assay: NCI-60 assay, U251 cell line; assay type: cell-based, human
[4] = tested on: breast cancer cell line (BT-549); assay: NCI-60 assay, BT-549 cell line; assay type: cell-based, human
[5] = tested on: NCI-60 cancer cell lines; conditions: for number of cancer cell lines completely killed / number of cancer cell lines whose growth was totally inhibited / TGI50, median concentration for total growth inhibition / GI50 / CC50: five-dose assay; for number of cancer cell lines completely killed: at median LC50 or lower; for number of cancer cell lines whose growth was totally inhibited: at median TGI50 or lower; for TGI50, median concentration for total growth inhibition: 29 (A) / 28 (B) cell lines; for GI50: read-out: GI50, median concentration, all but three cancer cell lines (HCT-15, NCI/ADR-RES, CAKI-1); for CC50: read-out: LC50, median concentration, 17 (A) / 20 (B) cell lines completely killed

Compound | HDAC inhibition ranking (order of inhibition) [1] | inhibitory activity across the 60 cancer cell lines [2] | number of cell lines inhibited at the mean growth percent or more [2] | sensitivity of U251 CNS cancer cell line [3] | sensitivity of BT-549 breast cancer cell line [4] | cancer cell lines inhibited in five-dose assay ([5]; exceptions: HCT-15 colon, NCI/ADR-RES ovarian, CAKI-1 renal) | number of cancer cell lines completely killed [5] | number of cancer cell lines whose growth was totally inhibited [5] | TGI50, median concentration for total growth inhibition [5] | GI50 [5] | CC50 [5] | relative potency (all parameters) ([5]; thailandepsin A vs thailandepsin B)
CC=C1NC(=O)C(CS)NC(=O)C(C(C)C)NC(=O)CC(C=CCCS)OC(=O)C(C(C)C)NC1=O (stereo not drawn) [reduced form of FK228] | HDAC2≧HDAC3≧HDAC1>HDAC8>HDAC4≧HDAC6>HDAC9≧HDAC7 | – | – | – | – | – | – | – | – | – | – | –
CC[C@H](C)[C@H]1NC(=O)[C@H]2CSSCC/C=C/[C@H](CC(=O)N[C@H](CCSC)C(=O)N2)OC(=O)C[C@@H]1O [thailandepsin A] | – | consistently inhibitory to most but not all 60 cancer cell lines | 28 cell lines | very sensitive | very sensitive | inhibitory to all but three cancer cell lines | 17 cancer cell lines | 29 cancer cell lines | ≤ 125.9 nM | ≤ 5.6 nM | ≤ 3890 nM | twice as potent as thailandepsin B
CCCC[C@H]1NC(=O)C[C@H]2/C=C/CCSSC[C@@H](NC1=O)C(=O)N[C@H]([C@@H](C)CC)[C@@H](O)CC(=O)O2 [thailandepsin B] | – | consistently inhibitory to most but not all 60 cancer cell lines | 30 cell lines | very sensitive | very sensitive | – | 20 cancer cell lines | 28 cancer cell lines | ≤ 256.4 nM | ≤ 11.7 nM | ≤ 6920 nM | –
